Tests used:
[1] = Acute toxicity, intragastric administration in mice; type: in vivo, C57BL/6 male white mice; settings: per os, doses lower than 300 mg/kg, 14 days observation
Description: Acute and subacute toxicity of compound 2 was experimentally studied for intragastric administration in white mice. […] The compound was solubilized in saline to be administrated to animals.
Experimental animals: 35 C57BL/6 male white mice, 7 weeks old, weight 20-22 g. The following experimental procedure was used: • administration route of the compound: per os; • number of doses: […]; • dosage: 100-200-250-300-500-600-750 mg/kg; • volume introduced into 0.3 ml/20 g (15 ml/kg); • data recorded: behavior, weight changes, rectal temperature, mortality.

Aspergillus niger = experiment: Antifungal agar well diffusion assay; settings: 20 μL water solution in 4 mm well
Description: (§3) The well diffusion test was performed using Casitone agar. The inoculum used was prepared using the Candida or Aspergillus strains from a 24-hour culture on Sabouraud dextrose agar, a suspension was made in a sterile saline solution (0.85%). The turbidity of the suspension was adjusted with a spectrophotometer at 530 nm to obtain a final concentration to match that of a 0.5 McFarland standard (0.5-2.5×10^3). 20 mL of Bacto-casitone were melted, cooled to 55° C. and then inoculated with 1 mL of the organism suspension. The inoculated agar was poured into the assay plate (9 cm in diameter) and allowed to cool down on a leveled surface.

[2] = system: Pseudomonas aeruginosa PAO1; experiment: REMA MIC90, broad spectrum of microorganisms; type: cell-based; settings: Pseudomonas aeruginosa PAO1, in presence of efflux inhibitor, read-out: MIC to Compound 2
Penicillium notatum = experiment: Antifungal agar well diffusion assay; settings: 20 μL water solution in 4 mm well
Description: as §3

M. bolletii 1999-0888 = experiment: REMA MIC90, broad spectrum of microorganisms; type: cell-based; settings: Mycobacteroides abscessus, 19990888, M. bolletii 1999-0888, Wild-type, read-out: MIC to Compound 2
[3] = system: M. abscessus clinical isolate n. 8; experiment: REMA MIC90, broad spectrum of microorganisms; type: cell-based; settings: Mycobacteroides abscessus, M. abscessus clinical isolate n. 8, resistant to moxifloxacin, doxycycline, read-out: MIC to Compound 2
Description: (§1) To determine the in vitro activity of compounds (MIC90) against Mycobacterium abscessus ATCC 19977, the resazurin reduction microplate assays (REMA) is performed. Briefly, serial 2-fold dilutions of drug are prepared in 96-well microtiter plates (Fluoronunc, Thermo Fisher, Waltham, MA, USA) in 100 μL of Middlebrook 7H9 medium (Difco), supplemented with 10% OADC without addition of Tween 80. Then, M. abscessus log-phase cultures were diluted (OD600=0.02) and added in the 96-well microtiter plate. Growth controls containing no compound and sterile controls without inoculum are also included. Also, a compound known to be active against M. abscessus growth is included as positive control. After 1 day of incubation at 37° C., 10 μL of resazurin (0.025% w/v) is added to each well, and bacterial viability is assessed after a further 24 h of incubation using a Fluoroskan™ Microplate Fluorometer (Thermo Fisher Scientific, Waltham, MA, USA; excitation=544 nm, emission=590 nm). Bacterial viability was calculated as a percentage of resazurin turnover in the absence of compound (MIC90). […]. Results are expressed as the average of at least three independent replicates and presented on the following Table 1.
(§2) By using the same procedure, the compound according to Example B (compound 2) was tested on broad spectrum of microorganisms and the corresponding results are presented in the below Table 2.

[4] = system: M. avium clinical isolate n. 3; experiment: REMA MIC90, broad spectrum of microorganisms; type: cell-based; settings: Mycobacterium avium, M. avium clinical isolate n. 3, resistant to linezolid, read-out: MIC to Compound 2
Description: as §1, §2

[5] = system: M. abscessus clinical isolate n. 10; experiment: REMA MIC90, broad spectrum of microorganisms; type: cell-based; settings: Mycobacteroides abscessus, M. abscessus clinical isolate n. 10, resistant to moxifloxacin, doxycycline, read-out: MIC to Compound 2
Description: as §1, §2

[6] = system: MRSA Staphylococcus aureus clinical isolate; experiment: REMA MIC90, broad spectrum of microorganisms; type: cell-based; settings: read-out: MIC to Compound 2
Description: as §1, §2

[7] = system: M. abscessus clinical isolate n. 9; experiment: REMA MIC90, broad spectrum of microorganisms; type: cell-based; settings: Mycobacteroides abscessus, M. abscessus clinical isolate n. 9, resistant to clarithromycin, moxifloxacin, doxycycline, read-out: MIC to Compound 2
Description: as §1, §2

[8] = system: M. avium clinical isolate n. 4; experiment: REMA MIC90, broad spectrum of microorganisms; type: cell-based; settings: Mycobacterium avium, M. avium clinical isolate n. 4, resistant to linezolid and Moxifloxacin, read-out: MIC to Compound 2
Description: as §1, §2

[9] = system: M. avium clinical isolate n. 2; experiment: REMA MIC90, broad spectrum of microorganisms; type: cell-based; settings: Mycobacterium avium, M. avium clinical isolate n. 2, resistant to linezolid, read-out: MIC to Compound 2
Description: as §1, §2

[10] = system: M. abscessus clinical isolate n. 6; experiment: REMA MIC90, broad spectrum of microorganisms; type: cell-based; settings: Mycobacteroides abscessus, M. abscessus clinical isolate n. 6, resistant to clarithromycin, moxifloxacin, doxycycline, linezolid, read-out: MIC to Compound 2
Description: as §1, §2

[11] = system: M. abscessus MDR clinical isolate 2 (from CF patient); experiment: REMA MIC90, broad spectrum of microorganisms; type: cell-based; settings: Mycobacteroides abscessus, resistant to amikacin, amoxicillin, imipenem, linezolid and others, read-out: MIC to Compound 2
Description: as §1, §2

[12] = system: M. abscessus clinical isolate n. 7; experiment: REMA MIC90, broad spectrum of microorganisms; type: cell-based; settings: Mycobacteroides abscessus, M. abscessus clinical isolate n. 7, resistant to clarithromycin, amikacin, moxifloxacin, doxycycline, read-out: MIC to Compound 2
Description: as §1, §2

[13] = system: M. avium clinical isolate n. 1; experiment: REMA MIC90, broad spectrum of microorganisms; type: cell-based; settings: Mycobacterium avium, M. avium clinical isolate n. 1, resistant to linezolid, read-out: MIC to Compound 2
Description: as §1, §2

[14] = system: M. abscessus MDR clinical isolate 1; experiment: REMA MIC90, broad spectrum of microorganisms; type: cell-based; settings: Mycobacteroides abscessus, M. abscessus MDR clinical isolate 1, resistant to amikacin, clarithromycin, doxycycline, bedaquiline and others, read-out: MIC to Compound 2
Description: as §1, §2

M. smegmatis mc2155 = experiment: REMA MIC90, broad spectrum of microorganisms; type: cell-based; settings: Mycolicibacterium smegmatis, M. smegmatis mc2155, Wild-type, read-out: MIC to Compound 2

Compound: CCOC(=O)c1ccc([S-])[n+]([O-])c1.[Na+] [Compound 2, Sodium 5-(ethoxycarbonyl)pyridine-2-thiolate 1-oxide]
- Acute toxicity: animal death [1]: there were no cases of animal death
- Acute toxicity: general state and behavior [1]: did not cause changes in the general state and behavior of the mice
- Inhibition Zone of Test Microorganism (Aspergillus niger): 28 mm
- MIC [2]: 1000 µg/mL
- Inhibition Zone of Test Microorganism (Penicillium notatum): 15 mm
- MIC (M. bolletii 1999-0888): 500 µg/mL
- MIC [3]: 500 µg/mL
- MIC [4]: 500 µg/mL
- MIC [5]: 500 µg/mL
- MIC [6]: 8000 µg/mL
- MIC [7]: 500 µg/mL
- MIC [8]: 500 µg/mL
- MIC [9]: 500 µg/mL
- MIC [10]: 500 µg/mL
- MIC [11]: 500 µg/mL
- MIC [12]: 500 µg/mL
- MIC [13]: 500 µg/mL
- MIC [14]: 500 µg/mL
- MIC (M. smegmatis mc2155): 1000 µg/mL
